Source: PMC12389136, “Insights into the Structural Patterns in Human Glioblastoma Cell Line SF268 Activity and ADMET Prediction of Curcumin Derivatives” (Pharmaceutics, 2025)
Values after ≈ are worked out from the molar mass of the structure shown. Blank lines part the entries; values can stand above or below the compound they belong to.

Assays:
Vero cells = assay: Mammalian cytotoxicity, MTT assay in Vero cells; format: cell-based; settings: 48 h; for IC50: Chlorocebus sabaeus
Procedure: Grade IV SF268 glioblastoma cells and Vero epithelial cells were obtained from ATCC and cultured in complete medium consisting of Roswell Park Memorial Institute medium (RPMI-1640) supplemented with 0.05% gentamicin (50 mg/mL) and 10% FBS (fetal bovine serum; Gibco, Invitrogen, Carlsbad, CA, USA). Cultures were maintained at 37 °C in a 5% CO2 atmosphere and split by trypsin treatment once per week to maintain confluence.
For the cytotoxicity assays, Vero cells were cultivated in 96-well plates at 37 °C under a 5% CO2 atmosphere using RPMI-1640 medium with 0.05% gentamicin (50 mg/mL) and 10% FBS (fetal bovine serum). Vero cells were allowed to adhere for 24 h before being incubated for 48 h with the samples. During the treatment, dimethyl sulfoxide (DMSO) was used as a negative control, curcumin (1) was used as a control, and samples were assayed at four different concentrations. After incubation, MTT (3-(4,5-di-methyl-thiazol-2-yl)-2,5-diphenyl-tetrazolium bromide) was added to each well, and the absorbance at 570 nm was determined 4 h later using a color plate reader. Cytotoxicity was evaluated colorimetrically by calculating the ability of the remaining living Vero cells to reduce the pale yellow MTT to the black–purple formazan product, as previously described. All bioassays were performed in duplicate, and the inhibitory concentration (IC50) values were determined using the Data Analysis complement Wizard of Excel 2000 (Microsoft, Seattle, WA, USA).

SF268 glioblastoma cells = assay: MTT cytotoxicity in the glioblastoma cell line SF268 (single-concentration screening and IC50); format: cell-based, Human; settings: for IC50 / activity at 10 µg/mL: Homo sapiens; for IC50: SF-268; for activity at 10 µg/mL: SF-268, 48 h, read-out: Growth Screening (%RG); for activity at 10 µg/mL / Growth Screening (%RG): SF268, single concentration 10 µg/mL, 48 h, percentage of relative growth; for Selectivity Index (SI): Vero versus SF268
Procedure: Cultures were maintained at 37 °C in a 5% CO2 atmosphere and split by trypsin treatment once per week to maintain confluence.
RPMI without cells was used as a color control, and doxorubicin was used as an inhibition control. After treatment, MTT was added to each well, and the absorbance at 570 nm was determined 4 h later using a color plate reader. All bioassays were performed in duplicate, and the IC50 values were determined by the Data Analysis complement Wizard of Excel 2000 (Microsoft, Seattle, WA, USA).

SF268 cell microtubules = assay: Immunofluorescence staining of microtubules in SF268 cells; format: cell-based, Human; settings: SF268, 10 µg/mL, 24 h / 12 h, versus DMSO control
Procedure: SF268 cells were seeded onto 96-well plates and allowed to adhere overnight in complete growth medium (RPMI-1640).
After treatment, the cells were rinsed two times with PBS, fixed in 4% paraformaldehyde (15 min), and permeabilized with 0.5% Triton X-100 (Sigma Aldrich, St. Louis, MO, USA) (5 min). Nonspecific binding was blocked with 5% bovine serum albumin (BSA) in phosphate-buffered saline (PBS) for 1 h. […] Nuclei were counterstained with Hoechst 33342 (15 min), washed 2 times with PBS, and left in PBS at 4 °C in the dark.
Fluorescence images were acquired with an Olympus IX70 microscope (Olympus, Tokyo, Japan) using a 60× objective with identical exposure settings for all conditions. Microtubule density and organization were acquired and analyzed using β-tubulin signals in HCImage Hamamatsu (version 4.8) and ImageJ (version 1.54).
SF268 cells were exposed to media containing either DMSO as a control or curcumin derivatives at 10 μg/mL for 24 h, after which the microtubules were visualized with an α tubulin antibody (yellow), and the cell nuclei were stained with Hoechst (blue).
The cells were then stained with a β-tubulin antibody (yellow) and Hoechst dye (blue) to visualize the nucleus.

[1] = test system: mitochondrial membrane potential of SF268 cancer cells; assay: Mitochondrial membrane potential measurement with DiOC6; format: cell-based, Human; settings: 10 µg/mL, 6 h, versus DMSO control
Procedure: Changes in membrane potential were measured by staining cultured cells with the mitochondrial selective dye 3,3′-dihexyloxacarbocyanine (DiOC6) at 10 nM (Thermo Fisher, Waltham, MA, USA). The samples were incubated at 10 μg/mL for 6 h at 37 °C and then stained for 20 min with DiOC6 in the dark. Following incubation, the cells were washed, and the green fluorescence intensity of the DiOC6-stained cells was analyzed with a fluorometer immediately after staining. Incubation for 1 h with the mitochondrial membrane disruptor CCCP, carbonyl cyanide m-chlorophenylhydrazone (50 μM final concentration), was used as a positive control.
Changes in the mitochondrial membrane potential, a common hallmark of programmed cell death, were analyzed in samples with promising activities toward CNS cell line growth. We examined the effects of these compounds on the mitochondrial membrane potential using the dye DiOC6, a fluorophore that accumulates rapidly and selectively inside mitochondria depending on the membrane potential.
Figure 6 Changes in mitochondrial membrane potential caused by the compounds. Fluorometry was used to measure the mitochondrial effects of compounds that inhibited cell growth in culture. A membrane disruptor (CCCP) was added as a positive control, and untreated cultures (DMSO) were used as a negative control. […]

Porcine tubulin = target: T1, Porcine tubulin (Sus scrofa, UniProt P02550+P02554); assay: In vitro tubulin polymerization assay (cell-free kit); format: biochemical; settings: 10 µg/mL, 1 h at 37 °C, versus DMSO control
T1 construct: purchased Cytoskeleton Inc., Denver, CO, USA BK011P; host or cells: porcine neural tissue (tissue-purified; that it is brain is my own knowledge of the kit)
T1 sequence (P02550 whole entry): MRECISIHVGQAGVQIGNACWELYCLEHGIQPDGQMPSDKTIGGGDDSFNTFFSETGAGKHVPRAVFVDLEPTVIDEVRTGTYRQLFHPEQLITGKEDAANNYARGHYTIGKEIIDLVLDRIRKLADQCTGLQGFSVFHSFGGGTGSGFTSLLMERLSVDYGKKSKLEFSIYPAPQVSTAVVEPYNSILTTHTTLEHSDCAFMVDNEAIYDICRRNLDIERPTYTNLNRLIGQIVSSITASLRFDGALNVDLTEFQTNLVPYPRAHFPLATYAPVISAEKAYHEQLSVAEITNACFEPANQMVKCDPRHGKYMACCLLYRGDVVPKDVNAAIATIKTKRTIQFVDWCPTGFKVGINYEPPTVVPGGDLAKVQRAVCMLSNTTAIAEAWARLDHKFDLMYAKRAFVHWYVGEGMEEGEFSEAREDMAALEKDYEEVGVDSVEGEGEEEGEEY
T1 sequence (P02554 whole entry): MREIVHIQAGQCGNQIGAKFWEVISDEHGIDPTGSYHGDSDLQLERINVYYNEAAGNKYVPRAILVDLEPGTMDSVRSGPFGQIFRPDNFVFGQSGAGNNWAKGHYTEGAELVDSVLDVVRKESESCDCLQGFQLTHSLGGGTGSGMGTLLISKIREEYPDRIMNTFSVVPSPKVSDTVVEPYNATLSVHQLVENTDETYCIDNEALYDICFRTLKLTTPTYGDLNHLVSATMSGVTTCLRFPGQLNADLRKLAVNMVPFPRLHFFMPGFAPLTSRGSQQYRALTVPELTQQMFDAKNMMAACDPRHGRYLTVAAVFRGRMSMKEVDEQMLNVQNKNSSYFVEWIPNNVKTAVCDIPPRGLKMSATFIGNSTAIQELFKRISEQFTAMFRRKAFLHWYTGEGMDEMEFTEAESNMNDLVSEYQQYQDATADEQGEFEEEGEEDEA
Procedure: A Tubulin Polymerization Assay Kit (Porcine tubulin and Fluorescence-based; Cat. # BK011P) (Cytoskeleton Inc., Denver, CO, USA) was used. Neural tubulin (>99% pure cytoskeleton) and tubulin polymerization buffer were mixed with 10 µg/mL curcumin derivatives or the vehicle DMSO at 37 °C in a preheated 96-well plate. The measurement of […] was immediately initiated using a Bio-Tek Synergy HT plate reader (one reading per minute for 1 h, according to the kit instructions). The rate of tubulin polymerization (milli-OD340 units per min) was then calculated for each sample from the linear portion of the kinetics curve, and group mean rates were analyzed for statistical significance.
We used a fluorescence cell-free-based assay to analyze the ability of curcumin to inhibit tubulin polymerization into microtubules in vitro. […]
Figure 5 (A) Tubulin polymerization of compounds 1, 2, 3, 4, 6, and 11. Tubulin polymerization was monitored by the increase in fluorescence at 360 nm (excitation) and 420 nm (emission) for 1 h at 37 °C. […]
The tubulin polymerization activities were determined by measuring fluorescence and recording the area under the curve (AUC). Increasing fluorescence indicates increasing polymerization activity, whereas decreasing fluorescence indicates greater depolymerization activity.

Compound: 1,7-bis(4-hydroxy-3-methoxyphenyl)hepta-1,6-diene-3,5-dione [Compound 1, reference compound]
IC50 VERO (Vero cells): 15.9 µg/mL
IC50 SF268 (SF268 glioblastoma cells; SF268, 48 h, MTT): 6.3 µg/mL

Compound: COc1cc(/C=C/C(O)=C/C(=O)/C=C/c2ccc(OCc3ccccc3)c(OC)c2)ccc1O [Compound 2]
IC50 (Vero cells): 11.9 µg/mL (≈ 26 µM)
IC50 (SF268 glioblastoma cells; SF268, 48 h, MTT): 3.97 µg/mL (≈ 8.65 µM)
microtubule density and organization (SF268 cell microtubules): significant reduction in microtubule density

Compound: COc1cc(/C=C/C(O)=C/C(=O)/C=C/c2ccc(OC(C)=O)c(OC)c2)ccc1O [Compound 3]
IC50 (Vero cells): 13.2 µg/mL (≈ 32.2 µM)
activity at 10 µg/mL (SF268 glioblastoma cells; MTT): ≤ 40%
IC50 (SF268 glioblastoma cells; SF268, 48 h, MTT): 0.88 µg/mL (≈ 2.14 µM)
mitochondrial membrane potential (DiOC6 fluorescence intensity) [1]: lowest fluorescence intensity

Compound: COc1cc(/C=C/C(=O)/C=C(O)/C=C/c2ccc(OC(C)=O)c(OC)c2)ccc1OC(C)=O [Compound 4, (1E,3Z,6E)-3-hydroxy-5-oxohepta-1,3,6-triene-1,7-diyl)bis(2-methoxy-4,1-phenylene) diacetate]
IC50 (Vero cells): 42.1 µg/mL
activity at 10 µg/mL (SF268 glioblastoma cells; MTT): ≤ 40%
IC50 (SF268 glioblastoma cells; SF268, 48 h, MTT): 2.45 µg/mL
Selectivity Index (SI) (SF268 glioblastoma cells): 17.16

Compound: COC(=O)CCC(=O)Oc1ccc(/C=C/C(=O)/C=C(O)/C=C/c2ccc(O)c(OC)c2)cc1OC [Compound 6]
IC50 (Vero cells): 12.9 µg/mL (≈ 26.7 µM)
activity at 10 µg/mL (SF268 glioblastoma cells; MTT): ≤ 40%
IC50 (SF268 glioblastoma cells; SF268, 48 h, MTT): 0.833 µg/mL (≈ 1.73 µM)
Selectivity Index (SI) (SF268 glioblastoma cells): 15.45
microtubule density and organization (SF268 cell microtubules): significant reduction in microtubule density

Compound: COc1cc(/C=C/C(O)=C/C(=O)/C=C/c2ccc(OC(=O)CCC(=O)O[C@@H]3C[C@H](C)CC[C@H]3C(C)C)c(OC)c2)ccc1O [Compound 7]
activity at 10 µg/mL (SF268 glioblastoma cells; MTT): 50.9%

Compound: COc1cc(C=CC(=O)C=C(O)C=Cc2ccc(OC(=O)CCC(=O)OC3CC(C)CCC3C(C)C)c(OC)c2)ccc1OC(=O)CCC(=O)OC1CC(C)CCC1C(C)C (stereo not shown) [Compound 8]
activity at 10 µg/mL (SF268 glioblastoma cells; MTT): 55.2%

Compound: COc1cc(/C=C/C(O)=C/C(=O)/C=C/c2ccc(OC(=O)CCC(=O)OC3C4CC5CC(C4)CC3C5)c(OC)c2)ccc1O (stereo not shown) [Compound 9]
activity at 10 µg/mL (SF268 glioblastoma cells; MTT): 45.6%

Compound: COc1cc(/C=C/C(=O)/C=C(O)/C=C/c2ccc(OC(=O)CCC(=O)OC3C4CC5CC(C4)CC3C5)c(OC)c2)ccc1OC(=O)CCC(=O)OC1C2CC3CC(C2)CC1C3 (stereo not shown) [Compound 10]
activity at 10 µg/mL (SF268 glioblastoma cells; MTT): 52%

Compound: C=CCOC(=O)CCC(=O)Oc1ccc(/C=C/C(=O)/C=C(O)/C=C/c2ccc(O)c(OC)c2)cc1OC [Compound 11, Allyl (4-(1E,3Z,6E)-3-hydroxy-7-(4-hydroxy-3-methoxyphenyl)-5-oxohepta-1,3,6-trien-1-yl)-2-methoxyphenyl) succinate]
IC50 (Vero cells): 11.9 µg/mL
activity at 10 µg/mL (SF268 glioblastoma cells; MTT): ≤ 40%
IC50 (SF268 glioblastoma cells; SF268, 48 h, MTT): 0.59 µg/mL
Selectivity Index (SI) (SF268 glioblastoma cells): 20.17
microtubule density and organization (SF268 cell microtubules): significant reduction in microtubule density
mitochondrial membrane potential (DiOC6 fluorescence intensity) [1]: lowest fluorescence intensity

Compound: C=CCOC(=O)CCC(=O)Oc1ccc(/C=C/C(=O)/C=C(O)/C=C/c2ccc(OC(=O)CCC(=O)OCC=C)c(OC)c2)cc1OC [Compound 12, Diallyl O,O′-(((1E,3Z,6E)-3-hydroxy-5-oxohepta-1,3,6-triene-1,7-diyl)bis(2-methoxy-4,1-phenylene)) disuccinate]
activity at 10 µg/mL (SF268 glioblastoma cells; MTT): 49.2%

Compound: COc1cc(/C=C/C(=O)/C=C(O)/C=C/c2ccc(OC(=O)CCC(=O)OCc3ccccc3)c(OC)c2)ccc1OC(=O)CCC(=O)OCc1ccccc1 [Compound 14, Dibenzyl O,O′-(((1E,3Z,6E)-3-hydroxy-5-oxohepta-1,3,6-triene-1,7-diyl)bis(2-methoxy-4,1-phenylene)) disuccinate]
activity at 10 µg/mL (SF268 glioblastoma cells; MTT): 85.1%

Compound: COc1cc(/C=C/C(O)=C/C(=O)/C=C/c2ccc(OC(=O)CCC(=O)OC(c3ccccc3)C3CCCCC3)c(OC)c2)ccc1O (stereo not shown) [Compound 15]
activity at 10 µg/mL (SF268 glioblastoma cells; MTT): 47.9%

Compound: COc1cc(/C=C/C(=O)/C=C(O)/C=C/c2ccc(OC(=O)CCC(=O)OC(c3ccccc3)C3CCCCC3)c(OC)c2)ccc1OC(=O)CCC(=O)OC(c1ccccc1)C1CCCCC1 (stereo not shown) [Compound 16]
activity at 10 µg/mL (SF268 glioblastoma cells; MTT): 57.2%

Compound: COc1cc(/C=C/C(O)=C/C(=O)/C=C/c2ccc(OC(=O)CCC(=O)OC3CCCc4ccccc43)c(OC)c2)ccc1O (stereo not shown) [Compound 17]
activity at 10 µg/mL (SF268 glioblastoma cells; MTT): 46.8%

Compound: COc1cc(/C=C/C(=O)/C=C(O)/C=C/c2ccc(OC(=O)CCC(=O)OC3Cc4ccccc4C3)c(OC)c2)ccc1OC(=O)CCC(=O)OC1Cc2ccccc2C1 [Compound 18]
activity at 10 µg/mL (SF268 glioblastoma cells; MTT): 62.9%

Compound: COc1cc(/C=C/C(O)=C/C(=O)/C=C/c2ccc(OC(=O)CCC(=O)OC3c4ccccc4-c4ccccc43)c(OC)c2)ccc1O [Compound 19]
IC50 (Vero cells): 15.2 µg/mL (≈ 24 µM)
activity at 10 µg/mL (SF268 glioblastoma cells; MTT): ≤ 40%
IC50 (SF268 glioblastoma cells; SF268, 48 h, MTT): 1.11 µg/mL (≈ 1.75 µM)
Selectivity Index (SI) (SF268 glioblastoma cells): 13.71

Compound: COc1cc(/C=C/C(=O)/C=C(O)/C=C/c2ccc(OC(=O)CCC(=O)OC3c4ccccc4-c4ccccc43)c(OC)c2)ccc1OC(=O)CCC(=O)OC1c2ccccc2-c2ccccc21 [Compound 20]
activity at 10 µg/mL (SF268 glioblastoma cells; MTT): 63%

Compound: COc1cc(/C=C/C(O)=C/C(=O)/C=C/c2ccc(OC(=O)CCC(=O)OC(c3ccccc3)c3ccccc3)c(OC)c2)ccc1O [Compound 21]
IC50 (Vero cells): 46 µg/mL (≈ 72.5 µM)
activity at 10 µg/mL (SF268 glioblastoma cells; MTT): ≤ 40%
IC50 (SF268 glioblastoma cells; SF268, 48 h, MTT): 36.4 µg/mL (≈ 57.4 µM)
Selectivity Index (SI) (SF268 glioblastoma cells): 1.26

Compound: COc1cc(/C=C/C(O)=C/C(=O)/C=C/c2ccc(OC(=O)CCC(=O)OCc3ccc4c(c3)C(=O)c3ccccc3C4=O)c(OC)c2)ccc1O [Compound 22]
IC50 (Vero cells): 72.8 µg/mL (≈ 106 µM)
activity at 10 µg/mL (SF268 glioblastoma cells; MTT): ≤ 40%
IC50 (SF268 glioblastoma cells; SF268, 48 h, MTT): 58.9 µg/mL (≈ 85.5 µM)
Selectivity Index (SI) (SF268 glioblastoma cells): 1.19

tubulin polymerization (fluorescence, AUC) (Porcine tubulin): caused an increase in the AUC
Compound: CC(=O)O[C@H]1C(=O)[C@@]2(C)[C@H]([C@H](OC(=O)c3ccccc3)[C@]3(O)C[C@H](OC(=O)[C@H](O)[C@@H](NC(=O)c4ccccc4)c4ccccc4)C(C)=C1C3(C)C)[C@]1(OC(C)=O)CO[C@@H]1C[C@@H]2O [Paclitaxel]

tubulin polymerization (fluorescence, AUC) (Porcine tubulin): significant decrease in the AUC
Compound: [Ca+2].[Cl-].[Cl-] [calcium chloride]

Compound: Benzyl (4-((1E,3Z,6E)-3-hydroxy-7-(4-hydroxy-3-methoxyphenyl)-5-oxohepta-1,3,6-trien-1-yl)-2-methoxyphenyl) succinate [Compound 13]
Growth Screening (%RG) (SF268 glioblastoma cells; MTT): 49.88%

Compound: Cyclopentyl (4-((1E,3Z,6E)-3-hydroxy-7-(4-hydroxy-3-methoxyphenyl)-5-oxohepta-1,3,6-trien-1-yl)-2-methoxyphenyl) succinate [Compound 5]
IC50 VERO (Vero cells): 12.6 µg/mL
Growth Screening (%RG) (SF268 glioblastoma cells; MTT): 50.81%
